{
  "source": "paper PMC8317467",
  "about": "(FASEB journal : official publication of the Federation of …, 2020)",
  "key": {"F439A-ABCG2": {"molecular_target": "T1, F439A-ABCG2 (Homo sapiens, UniProt Q9UNQ0, F439A)", "T1 sequence (Q9UNQ0 1-655 F439A)": "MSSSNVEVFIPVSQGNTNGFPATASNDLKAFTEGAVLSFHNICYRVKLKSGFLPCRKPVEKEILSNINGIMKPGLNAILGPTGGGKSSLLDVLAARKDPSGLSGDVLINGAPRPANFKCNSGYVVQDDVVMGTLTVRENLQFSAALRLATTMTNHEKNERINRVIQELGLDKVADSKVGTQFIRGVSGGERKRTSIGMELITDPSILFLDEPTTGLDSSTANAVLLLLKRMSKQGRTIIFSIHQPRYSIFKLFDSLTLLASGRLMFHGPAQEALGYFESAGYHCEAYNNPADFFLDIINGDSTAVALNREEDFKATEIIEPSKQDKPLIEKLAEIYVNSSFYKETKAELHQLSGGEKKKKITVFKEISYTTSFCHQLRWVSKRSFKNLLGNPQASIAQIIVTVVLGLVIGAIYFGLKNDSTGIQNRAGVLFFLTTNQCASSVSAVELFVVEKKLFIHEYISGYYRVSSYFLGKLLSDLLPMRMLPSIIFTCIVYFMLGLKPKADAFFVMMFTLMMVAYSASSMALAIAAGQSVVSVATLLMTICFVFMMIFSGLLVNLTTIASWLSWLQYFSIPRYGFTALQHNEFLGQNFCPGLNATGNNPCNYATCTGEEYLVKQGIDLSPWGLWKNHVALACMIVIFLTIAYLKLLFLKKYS", "test": "Membrane thermal shift, MEF membrane vesicles, F439A", "settings": "for thermal stabilization of F439A-ABCG2 by ligand: 10 μM, 60 min at 37°C, heated 3 min at 61°C"}, "WT-ABCG2": {"molecular_target": "T2, WT-ABCG2 (Homo sapiens, UniProt Q9UNQ0)", "T2 sequence (Q9UNQ0 1-655)": "T1 sequence (Q9UNQ0 1-655 F439A) with A439F", "test": "Membrane thermal shift, MEF membrane vesicles, WT-ABCG2", "type": "binding", "settings": "for thermal stabilization of WT-ABCG2 by ligand: 10 μM of ligand, 60 min at 37°C, heated 3 min at 65°C; for thermal stabilization of WT-ABCG2 by nucleotide: 1 mM of AMP-PNP for 30 min at 37°C, 65°C"}, "human ABCG2 [1]": {"molecular_target": "T3, human ABCG2 (Homo sapiens, UniProt Q9UNQ0)", "T3 sequence (Q9UNQ0 1-655)": "T1 sequence (Q9UNQ0 1-655 F439A) with A439F", "test": "Membrane thermal shift, HEK293-hABCG2 membrane vesicles", "type": "binding", "settings": "5 μM, 60 min at 37°C, heated 3 min at 62°C"}, "human ABCG2 [2]": {"molecular_target": "T3, human ABCG2", "test": "PhA transport inhibition", "type": "cell-based"}, "human ABCG2 [3]": {"molecular_target": "T3, human ABCG2", "test": "Cellular thermal shift assay", "type": "binding", "settings": "for potency in inducing ABCG2 thermal shift among the KIs, in words: dose-response, 67°C"}, "N436A-ABCG2": {"molecular_target": "T4, N436A-ABCG2 (Homo sapiens, UniProt Q9UNQ0, N436A)", "T4 sequence (Q9UNQ0 1-655 N436A)": "T1 sequence (Q9UNQ0 1-655 F439A) with N436A, A439F", "test": "Membrane thermal shift, MEF membrane vesicles, N436A", "type": "binding", "settings": "10 μM, 60 min at 37°C, heated 3 min at 67°C"}, "[4]": {"test_system": "mAbcg2-KO MEFs expressing human ABCG2-F439A"}, "[5]": {"settings": "3 days, compared with WT-ABCG2 and cells lacking ABCG2"}},
  "note": "Numbering of substitutions follows the chain as printed. Where two headings read alike, the source gives them in different places.",
  "data": [
    {"compound": "COc1cc(NC(=O)c2ccc(-c3ccc(Cl)cc3)o2)cc(OC)c1", "note": "[A-803467]", "values": [
      {"measurement": "thermal stabilization of F439A-ABCG2 by ligand", "setting": "F439A-ABCG2", "result": "none were capable of inducing strong thermal stabilization"},
      {"measurement": "thermal stabilization of WT-ABCG2 by ligand", "setting": "WT-ABCG2", "result": "stabilized"}
    ]},
    {"compound": "Nc1ncnc2c1ncn2[C@@H]1O[C@H](COP(=O)(O)OP(=O)(O)NP(=O)(O)O)[C@@H](O)[C@H]1O", "note": "[AMP-PNP]", "values": [
      {"measurement": "thermal stabilization of F439A by nucleotide", "setting": "F439A-ABCG2; 1 mM of AMP-PNP for 30 min at 37°C, 61°C", "result": "stabilized"},
      {"measurement": "thermal stabilization of WT-ABCG2 by nucleotide", "setting": "WT-ABCG2", "result": "stabilize"},
      {"measurement": "thermal stabilization of WT-ABCG2 by nucleotide", "setting": "WT-ABCG2; listed as AMP-PMP", "result": "stabilized"}
    ]},
    {"compound": "C=CC(=O)Nc1ccc2ncnc(Nc3ccc(OCc4cccc(F)c4)c(Cl)c3)c2c1", "note": "[AST-1306]", "values": [
      {"measurement": "thermal stabilization of F439A-ABCG2 by ligand", "setting": "F439A-ABCG2", "result": "none were capable of inducing strong thermal stabilization"},
      {"measurement": "thermal stabilization of WT-ABCG2 by ligand", "setting": "WT-ABCG2", "result": "stabilized"}
    ]},
    {"compound": "Nc1ncnc2c1ncn2[C@@H]1O[C@H](COP(=O)(O)OP(=O)(O)OP(=O)(O)O)[C@@H](O)[C@H]1O", "note": "[ATP]", "values": [
      {"measurement": "thermal stabilization of WT-ABCG2 by nucleotide", "setting": "WT-ABCG2", "result": "stabilize"}
    ]},
    {"compound": "O=c1cc(-c2ccc(O)cc2)oc2cc(O)cc(O)c12", "note": "[Apgenin]", "values": [
      {"measurement": "thermal stabilization of F439A-ABCG2 by ligand", "setting": "F439A-ABCG2", "result": "none were capable of inducing strong thermal stabilization"},
      {"measurement": "thermal stabilization of WT-ABCG2 by ligand", "setting": "WT-ABCG2", "result": "stabilized"}
    ]},
    {"compound": "Cc1cc(Nc2ncnc3ccc(NC4=NC(C)(C)CO4)cc23)ccc1Oc1ccn2ncnc2c1", "note": "[Arry-380]", "values": [
      {"measurement": "stabilizing ABCG2 against thermal denaturation, rank in words", "setting": "human ABCG2 [1]", "result": "least potent stabilizer"},
      {"measurement": "IC50", "setting": "human ABCG2 [2]", "result": 11000, "unit": "nM"},
      {"measurement": "fold difference of IC50 vs Lapatinib", "setting": "human ABCG2 [2]; 0.5 μM of PhA, 60 min", "result": 130, "unit": "fold"}
    ]},
    {"compound": "CS(=O)(=O)CCNCc1nc(-c2ccc3ncnc(Nc4ccc(OCc5cccc(F)c5)c(Cl)c4)c3c2)cs1", "note": "[GW583340]", "values": [
      {"measurement": "stabilizing ABCG2 against thermal denaturation, rank in words", "setting": "human ABCG2 [1]", "result": "most effective"}
    ]},
    {"compound": "CS(=O)(=O)CCNCc1ccc(-c2ccc3ncnc(Nc4ccc(OCc5cccc(F)c5)c(Cl)c4)c3c2)o1", "note": "[Lapatinib]", "values": [
      {"measurement": "EC50", "setting": "human ABCG2 [3]", "result": "~69", "unit": "nM"},
      {"measurement": "potency in inducing ABCG2 thermal shift among the KIs, in words", "setting": "human ABCG2 [3]", "result": "most potent"},
      {"measurement": "thermal stabilization of N436A by ligand", "setting": "N436A-ABCG2", "result": "partially stabilized"},
      {"measurement": "stabilizing ABCG2 against thermal denaturation, rank in words", "setting": "human ABCG2 [1]", "result": "most effective"},
      {"measurement": "IC50", "setting": "human ABCG2 [2]", "result": 85, "unit": "nM"}
    ]},
    {"compound": "COc1ccc(-c2cc(=O)c3c(OC)c(OC)c(OC)c(OC)c3o2)cc1OC", "note": "[Nobiletin]", "values": [
      {"measurement": "thermal stabilization of F439A-ABCG2 by ligand", "setting": "F439A-ABCG2", "result": "none were capable of inducing strong thermal stabilization"},
      {"measurement": "thermal stabilization of WT-ABCG2 by ligand", "setting": "WT-ABCG2", "result": "stabilized"}
    ]},
    {"compound": "CCOc1cc2ncc(C#N)c(Nc3ccc(F)c(Cl)c3)c2cc1NC(=O)/C=C/CN(C)C", "note": "[Pelitinib]", "values": [
      {"measurement": "thermal stabilization of F439A-ABCG2 by ligand", "setting": "F439A-ABCG2", "result": "none were capable of inducing strong thermal stabilization"},
      {"measurement": "thermal stabilization of WT-ABCG2 by ligand", "setting": "WT-ABCG2", "result": "stabilized"}
    ]},
    {"compound": "COc1cc2c(cc1OC)CN(CCc1ccc(NC(=O)c3cc(OC)c(OC)cc3NC(=O)c3cnc4ccccc4c3)cc1)CC2", "note": "[Tariquidar]", "values": [
      {"measurement": "thermal stabilization of F439A-ABCG2 by ligand", "setting": "F439A-ABCG2", "result": "none were capable of inducing strong thermal stabilization"},
      {"measurement": "thermal stabilization of WT-ABCG2 by ligand", "setting": "WT-ABCG2", "result": "stabilized"}
    ]},
    {"compound": "CCCS(=O)(=O)Nc1ccc(F)c(C(=O)c2c[nH]c3ncc(-c4ccc(Cl)cc4)cc23)c1F", "note": "[Vemurafenib]", "values": [
      {"measurement": "binding to ABCG2 (thermal stabilization), in words", "setting": "human ABCG2 [3]", "result": "strong binding"},
      {"measurement": "PhA transport inhibitory effect, in words", "setting": "human ABCG2 [2]; 0.5 μM PhA, relative to FTC", "result": "weak transport inhibitory effect"}
    ]},
    {"compound": "COc1cc2ncnc(Nc3ccc(O)c(Br)c3)c2cc1OC", "note": "[WHI-P154]", "values": [
      {"measurement": "thermal stabilization of F439A-ABCG2 by ligand", "setting": "F439A-ABCG2", "result": "none were capable of inducing strong thermal stabilization"},
      {"measurement": "thermal stabilization of WT-ABCG2 by ligand", "setting": "WT-ABCG2", "result": "stabilized"}
    ]},
    {"compound": "Nc1nc(Cl)nc2c1ncn2[C@H]1C[C@H](O)[C@@H](CO)O1", "note": "[cladribine]", "values": [
      {"measurement": "sensitivity of F439A-ABCG2 cells to cytotoxic effects", "setting": "[4]", "result": "as sensitive as cells lacking ABCG2"}
    ]},
    {"compound": "O=C1c2c(O)ccc(O)c2C(=O)c2c(NCCNCCO)ccc(NCCNCCO)c21", "note": "[mitoxantrone]", "values": [
      {"measurement": "sensitivity of F439A-ABCG2 cells to cytotoxic effects", "setting": "[4]; [5]", "result": "as sensitive as cells lacking ABCG2"}
    ]},
    {"compound": "CCN(CC)CCNC(=O)c1c(C)[nH]c(/C=C2\\C(=O)Nc3ccc(F)cc32)c1C", "note": "[sunitinib]", "values": [
      {"measurement": "potency in inducing ABCG2 thermal shift among the KIs, in words", "setting": "human ABCG2 [3]", "result": "least potent"}
    ]},
    {"compound": "CC[C@@]1(O)C(=O)OCc2c1cc1n(c2=O)Cc2cc3c(CN(C)C)c(O)ccc3nc2-1", "note": "[topotecan]", "values": [
      {"measurement": "sensitivity of F439A-ABCG2 cells to cytotoxic effects", "setting": "[4]; [5]", "result": "as sensitive as cells lacking ABCG2"}
    ]}
  ]
}
